According to patent EP0084597A1, “Triazole and imidazole derivatives and pharmaceutical preparations containing them” (BAYER AG, priority 1981, dated 1983):
Values after ≈ are worked out from the molar mass of the structure shown.

Experiments:
[1] = test system: Torulopsis glabrata; experiment: Antimycotic in-vitro activity, serial dilution test (MIC); format: cell-based; settings: meat extract-glucose broth, 20°C, 24 to 96 hours, inoculum 5 x 10^4 germs/ml; for MIC: Nakaseomyces glabratus, read-out: MHK-Werte in γ/ml Nährmedium, Torulopsis glabrata
Description: (§1) Die in-vitro-Prüfungen wurden im Reihenverdünnungstest mit Keiminokula von durchschnittlich 5 x 10^4 Keimen/ml Substrat durchgeführt. Als Nährmedium dienten • a) für Dermatophyten und Schimmelpilze: Sabourand's milieu d'epreuve • b) für Hefen: Fleischextrakt-Traubenzucker-Bouillon.
(§2) Die Bebrütungstemperatur betrug 20°C, die Bebrütungsdauer lag bei 24 bis 96 Stunden bei Hefen und 96 Stunden bei Dermatophyten und Schimmelpilzen.

[2] = test system: Microsporum canis; experiment: as above; format: cell-based; settings: Sabouraud medium, 20°C, inoculum 5 x 10^4 germs/ml; for MIC: Microsporum canis, 96 h, read-out: MHK-Werte in γ/ml Nährmedium, Microsporum canis
Description: as §1, §2

[3] = test system: Candida albicans; experiment: as above; format: cell-based; settings: meat extract-glucose broth, 20°C, 24 to 96 hours, inoculum 5 x 10^4 germs/ml; for MIC: Candida albicans, read-out: MHK-Werte in γ/ml Nährmedium, Candida albicans
Description: as §1, §2

[4] = test system: Dermatophyten und Schimmelpilze, Hefen; experiment: Antimycotic in-vitro activity, serial dilution test, overall comparison with known compounds; format: cell-based; settings: compared with known compounds (A),(B),(C) and (D)
Description: as §1, §2

[5] = test system: Trichophyton mentagr.; experiment: Antimycotic in-vitro activity, serial dilution test (MIC); format: cell-based, Trichophyton mentagrophytes; settings: Sabouraud medium, 20°C, 96 hours, inoculum 5 x 10^4 germs/ml; for MIC: Trichophyton, read-out: MHK-Werte in γ/ml Nährmedium, Trichophyton mentagr.
Description: as §1, §2

[6] = test system: Aspergillus fumig.; experiment: as above; format: cell-based, Aspergillus fumigatus; settings: Sabouraud medium, 20°C, inoculum 5 x 10^4 germs/ml; for MIC: Aspergillus, 96 h, read-out: MHK-Werte in γ/ml Nährmedium, Aspergillus fumig.
Description: as §1, §2

[7] = test system: Candida-Zellen; experiment: Antimycotic in-vivo activity (oral) in mouse candidosis; design: species or system Mäuse vom Typ SPF-CF1; key: +++++: sehr gute Wirkung = 90 % Ueberlebende am 6.Tag p.i.; ++++: gute Wirkung = 80 % Ueberlebende am 6.Tag p.i.; +++: Wirkung = 60 % Ueberlebende am 6.Tag p.i.; ++: schwache Wirkung = 40 % Ueberlebende am 6.Tag p.i.; +: Spur Wirkung; k.W.: keine Wirkung
Description: Mäuse vom Typ SPF-CF1 wurden intravenös mit 1 - 2 x 10^6 logarithmisch wachsenden Candida-Zellen, die in physiologischer Kochsalzlösung suspendiert werden, infiziert. Eine Stunde vor und sieben Stunden nach der Infektion werden die Tiere mit jeweils 50 - 100 mg/kg Körpergewicht der Präparate oral behandelt.
Uhbehandelte Tiere starben 3 bis 6 Tage post infektionem. Die Ueberlebensrate am 6.Tag post infektionem betrug bei uhbehandelten Kontrolltieren etwa 5 %.
• +++++ = sehr gute Wirkung = 90 % Ueberlebende am 6.Tag p.i. • ++++ = gute Wirkung = 80 % Ueberlebende am 6.Tag p.i. • +++ = Wirkung = 60 % Ueberlebende am 6.Tag p.i. • ++ = schwache Wirkung = 40 % Ueberlebende am 6.Tag p.i. • + = Spur Wirkung = k.W. = keine Wirkung

[8] = mice infected i.v. with 1 - 2 x 10^6 Candida cells, oral 50 - 100 mg/kg one hour before and seven hours after infection, survivors on day 6 p.i.
[9] = mouse candidosis, oral, compared with known compounds (A), (B), (C) and (D)

Compound | MHK-Werte in γ/ml Nährmedium, Torulopsis glabrata [1] [µg/mL] | MHK-Werte in γ/ml Nährmedium, Microsporum canis ([2]; 96 hours) [µg/mL] | MHK-Werte in γ/ml Nährmedium, Candida albicans [3] [µg/mL] | antimykotische Wirkung [4] | MHK-Werte in γ/ml Nährmedium, Trichophyton mentagr. [5] [µg/mL] | MHK-Werte in γ/ml Nährmedium, Aspergillus fumig. ([6]; 96 hours) [µg/mL] | MIC [3] [µg/mL] | Wirkung [7, 8] | MIC [5] [µg/mL] | MIC [2] [µg/mL] | MIC [6] [µg/mL] | MIC [1] [µg/mL] | Wirkung [7, 9]
CCCCC(C(O)c1ccc(Oc2ccc(Cl)cc2)cc1)n1cncn1 (single isomer, unassigned) [Beispiel 34] | >64 | 32 | <1 | bessere antimykotische Wirkung | <1 | 32 |  |  |  |  |  |  | 
CC(C(=O)c1ccccc1)n1cncn1 (centres unmarked) [(A), reference compound] |  |  |  |  |  |  | > 64 | k.W. | > 64 |  |  |  | 
O=C(Cn1cncn1)c1ccc(-c2ccccc2)cc1 [(B), reference compound] |  |  |  |  |  |  | > 64 | k.W. | 4 (≈ 15.2 µM) | > 64 | > 64 |  | 
CC(C(O)c1ccc(Cl)cc1)n1cncn1 (centres unmarked) [(C), reference compound] |  |  |  |  |  |  | > 64 | k.W. | > 64 |  |  |  | 
OC(Cn1cncn1)c1ccc(-c2ccc(Cl)cc2)cc1 (centres unmarked) [(D), reference compound] |  |  |  |  |  |  | > 64 | k.W. | 4 (≈ 13.3 µM) | > 64 | > 64 |  | 
CCC(C(=O)c1ccc(Oc2ccc(Cl)cc2)cc1)n1cncn1 (centres unmarked) [Beispiel 7] |  |  |  | bessere antimykotische Wirkung |  |  | 16 (≈ 46.8 µM) |  | 4 (≈ 11.7 µM) | 2 (≈ 5.85 µM) | 32 (≈ 93.6 µM) | 64 (≈ 187 µM) | 
CC(C)C(C(=O)c1ccc(Oc2ccc(Cl)cc2)cc1)n1cncn1 (centres unmarked) [Beispiel 13] |  |  |  | bessere antimykotische Wirkung |  |  | 64 (≈ 180 µM) |  | 4 (≈ 11.2 µM) | 8 (≈ 22.5 µM) | 8 (≈ 22.5 µM) |  | 
CCCC(C(=O)c1ccc(Oc2ccc(Cl)cc2)cc1)n1ccnc1 (centres unmarked) [Beispiel 25] |  |  |  | bessere antimykotische Wirkung |  |  | < 1 |  | < 1 | 8 (≈ 22.5 µM) | < 1 | < 1 | 
CC(C(=O)c1ccc(Oc2ccc(Cl)cc2)cc1)n1ccnc1 (centres unmarked) [Beispiel 26] |  |  |  | bessere antimykotische Wirkung |  |  | 4 (≈ 12.2 µM) | + | 8 (≈ 24.5 µM) |  | 16 (≈ 49 µM) | 16 (≈ 49 µM) | bessere Wirkung
CCCCC(C(=O)c1ccc(Oc2ccc(Cl)cc2)cc1)n1ccnc1 (centres unmarked) [Beispiel 27] |  |  |  | bessere antimykotische Wirkung |  |  | < 1 |  | < 1 | < 1 | < 1 | < 1 | 
CC(C)C(C(=O)c1ccc(Oc2ccc(Cl)cc2)cc1)n1ccnc1 (centres unmarked) [Beispiel 28] |  |  |  | bessere antimykotische Wirkung |  |  | < 1 |  | < 1 | 2 (≈ 5.64 µM) | < 1 | 2 (≈ 5.64 µM) | 
CCCCCCCC(C(O)c1ccc(Oc2ccc(Cl)cc2)cc1)n1cncn1 (centres unmarked) [Beispiel 36] |  |  |  | bessere antimykotische Wirkung |  |  | 4 (≈ 9.66 µM) |  | < 1 | 32 (≈ 77.3 µM) | 64 (≈ 155 µM) | 16 (≈ 38.7 µM) | 
CC=CCC(C(O)c1ccc(Oc2ccc(Cl)cc2)cc1)n1cncn1 (centres unmarked) [Beispiel 37] |  |  |  | bessere antimykotische Wirkung |  |  | < 1 |  | 4 (≈ 10.8 µM) | 4 (≈ 10.8 µM) | 32 (≈ 86.5 µM) | 2 (≈ 5.41 µM) | 
CCCC=CC(C(O)c1ccc(Oc2ccc(Cl)cc2)cc1)n1cncn1 (centres unmarked) [Beispiel 38] |  |  |  | bessere antimykotische Wirkung |  |  | 8 (≈ 20.8 µM) |  | < 1 | 8 (≈ 20.8 µM) | 32 (≈ 83.4 µM) | 64 (≈ 167 µM) | 
COCCC(C(O)c1ccc(Oc2ccc(Cl)cc2)cc1)n1cncn1 (centres unmarked) [Beispiel 39] |  |  |  | bessere antimykotische Wirkung |  |  | < 1 |  | 4 (≈ 10.7 µM) | 16 (≈ 42.8 µM) | 16 (≈ 42.8 µM) | 4 (≈ 10.7 µM) | 
CCCC(C(O)c1ccc(Oc2ccc(Cl)cc2Cl)cc1)n1cncn1 (centres unmarked) [Beispiel 40] |  |  |  | bessere antimykotische Wirkung |  |  | < 1 |  | < 1 | 8 (≈ 20.4 µM) | > 64 | < 1 | 
CC(C(O)c1ccc(Oc2ccc(Cl)cc2Cl)cc1)n1cncn1 (centres unmarked) [Beispiel 41] |  |  |  | bessere antimykotische Wirkung |  |  | < 1 |  | 4 (≈ 11 µM) | 16 (≈ 43.9 µM) | 32 (≈ 87.9 µM) | 8 (≈ 22 µM) | 
CC(n1cncn1)C(C)(O)c1ccc(Oc2ccc(Cl)cc2)cc1 (centres unmarked) [Beispiel 44] |  |  |  | bessere antimykotische Wirkung |  |  | < 1 |  | < 1 | 32 (≈ 93.1 µM) | > 64 | > 64 | 
OC(Cn1cncn1)c1ccc(Oc2ccc(Cl)cc2Cl)cc1 (centres unmarked) [Beispiel 48] |  |  |  | bessere antimykotische Wirkung |  |  | < 1 |  | < 1 | 4 (≈ 11.4 µM) | 16 (≈ 45.7 µM) | 2 (≈ 5.71 µM) | 
OC(Cn1cncn1)c1ccc(Oc2ccc(Cl)cc2)cc1 (centres unmarked) [Beispiel 49] |  |  |  | bessere antimykotische Wirkung |  |  | < 1 |  | < 1 | 4 (≈ 12.7 µM) | 16 (≈ 50.7 µM) | 16 (≈ 50.7 µM) | 
CCCC(C(O)c1ccc(Oc2ccccc2)cc1)n1ccnc1 (centres unmarked) [Beispiel 68] |  |  |  | bessere antimykotische Wirkung |  |  | < 1 |  | 4 (≈ 12.4 µM) | 16 (≈ 49.6 µM) | 32 (≈ 99.3 µM) | 32 (≈ 99.3 µM) | 
CC(C(O)c1ccc(Oc2ccc(Cl)cc2)cc1)n1ccnc1 (centres unmarked) [Beispiel 71] |  |  |  | bessere antimykotische Wirkung |  |  | < 1 | +++ (Wirkung = 60 % Ueberlebende am 6.Tag p.i.) | 8 (≈ 24.3 µM) |  | 16 (≈ 48.7 µM) | 2 (≈ 6.08 µM) | bessere Wirkung
CCCCC(C(O)c1ccc(Oc2ccc(Cl)cc2)cc1)n1ccnc1 (centres unmarked) [Beispiel 72] |  |  |  | bessere antimykotische Wirkung |  |  | < 1 |  | < 1 | 8 (≈ 21.6 µM) | 32 (≈ 86.3 µM) | 2 (≈ 5.39 µM) | 
